Test results reported in patent publication US12383479B2 (LG HOUSEHOLD & HEALTH CARE LTD., priority 2021, dated 2025).
Converted amounts (≈) assume the structure as drawn.

What was measured:
[1] = 25° C.; cited from earlier work
[2] = Experimental Example 1: solubility of palmitoylethanolamide in each polyol solvent; assay type: physicochemical; details: 25° C. for 24 hours
Description: Polyols representatively used as solvents of cosmetics were chosen, which were propanediol, glycerin, […], 2,3-butanediol, pentylene glycol, dipropylene glycol, propylene glycol, butylene glycol, ethoxydiglycerol, and 1,2-hexanediol.

[3] = Experimental Example 2: solubility of palmitoylethanolamide with combined use of selected solvents and 2,3-butanediol; assay type: physicochemical; details: 1 wt % palmitoylethanolamide, 25° C. for 4 weeks, regardless of weight ratio
[4] = 0.5 wt % and 1 wt % palmitoylethanolamide

In the case of CCCCCCCCCCCCCCCC(=O)NCCO [palmitoylethanolamide, N-(2-hydroxyethyl)hexadecanamide], the water solubility [1] is given as 0.4431 µg/mL (≈ 1.48 µM), the “solubility in 1,2-hexanediol” value [2, 4] is given as “good solubility” and the “solubility in pentylene glycol” value [2, 4] is given as “good solubility”. The “solubility in the remaining polyols” value ([2]; propanediol, glycerin, ethanol, 2,3-butanediol, dipropylene glycol, propylene glycol, butylene glycol, ethoxydiglycerol, 0.5 and 1 wt %) was “precipitation”, the “solubility in 1,2-hexanediol combined with 2,3-butanediol” value [3] was “dissolved” and the “solubility in pentylene glycol combined with 2,3-butanediol” value [3] was “dissolved”.
